Source: article PMC10447463, “Data-mining unveils structure–property–activity correlation of viral infectivity enhancing self-assembling peptides” (Nature Communications, 2023)
Where two headings read alike, the source gives them in different places.

How the values were obtained:
[1] = tested on: HIV-1 infection of TZM-bl cells; assay: HIV-1 infectivity enhancement assay, β-galactosidase luminescence; type: cell-based; conditions: for Rel-EFC / Log10 Infection Rel EFC: 1.3 µM peptide; for Rel-EFC: infection relative to EF-C (QCKIKQIINMWQ = 1); for Log10 Infection Rel EFC: log10 of infection relative to EF-C; for Log Infectivity: Log10 infection relative to EF-C, TZM-bl cells, asymmetric std dev errors; for Log10 Infection Rel EF-C: HIV-1 infection of TZM-bl cells; for Log10 of Rel to EFC (Feb2021): Log10 of infection relative to EF-C, all peptides of FigS16; for Abs. Inf.: absolute infection signal, HIV-1 on TZM-bl cells, β-galactosidase luminescence; for Log10 Inf. rel. to EF-C: log10 of HIV-1 infection of TZM-bl cells relative to EF-C (EF-C = 0)
[2] = β-sheet content by ATR-FT-IR; type: physicochemical; conditions: Fig. S7 panel A; β-sheet content by ATR-FT-IR
Outline: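 β-sheet content came from ATR FT-IR spectra of lyophilized 1 mg/mL nanofibril solution (64 scans, 2 cm^-1 resolution). Conversion was measured by separating free monomer with a 3 kDa cutoff filter, then comparing fluorescamine fluorescence (ex 365/em 470 nm, 20 min RT) of filtrate versus unfiltered sample, in triplicate.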

[3] = Zeta-potential measurement; type: physicochemical
Outline: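 Peptides diluted from DMSO stock into PBS pH 7.4 to 1 mg/mL and aged 1 d at RT, then diluted into 1 mM aqueous KCl. Zeta potential derived from electrophoretic mobility via Smoluchowski; triplicates, averaged over two independent experiments.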

[4] = Turbidity, derived count rate of scattered light; type: physicochemical; conditions: for Count Rate / kcps: derived count rate of scattered light at 633 nm, 173°, from zeta-potential measurement, 0.1 mg/mL in 1 mM KCl after 1 d at 1 mg/mL in PBS, turbidity / microscopic aggregation, mean of triplicate
Outline: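 Samples: 1 mg/mL in PBS pH 7.4 (from DMSO), 1 d at RT, then diluted in 1 mM KCl immediately before measurement. Triplicates, two independent runs averaged.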

[5] = Turbidity, derived count rate of scattered light; type: physicochemical; conditions: for Count Rate: derived count rate of scattered light (turbidity); for Log10 Count Rate: turbidity, derived count rate of scattered light, data of Figure 2D
[6] = Fig. S7 panel A (plotted against β-sheet content)
[7] = Log10 of infection rate relative to EF-C, Figure 3A source data
[8] = infection rate relative to EF-C, log10, data of Figure 2D
[9] = infection rate relative to EF-C, log10, source data of Figure 2C
[10] = zeta-potential of peptide, source data of Figure 2C
[11] = zeta-potential of the peptide assemblies, mean, Figure 3A source data
[12] = Log10 of derived count rate of scattered light (turbidity)
[13] = turbidity, Log10 of derived count rate of scattered light, Figure 3A source data
[14] = turbidity, log10 of derived count rate of scattered light
[15] = Fig. S7 panel B (plotted against CR), rounded to two decimals
[16] = zeta potential of peptide assemblies

| Substance | Rel-EFC [1] | Log10 Infection Rel EFC [1] | Log Infectivity [1, 6] | Log10 Infection Rel EF-C [1, 7] | Log10 Infection Rel EF-C [1, 8] | Log10 Infection Rel EF-C [1, 9] | Log10 of Rel to EFC (Feb2021) [1] | Abs. Inf. [1] | Log10 Inf. rel. to EF-C [1] | b -sheet / % [2] | Zeta-Pot. [3] | Zeta-Potential / mV [3, 10] | Zeta-Potential / mV [3, 11] | Log10 Count Rate [4, 12] | Count Rate / kcps [4] | Log10 Count Rate [4, 13] | Log10 Count Rate [4, 14] | Count Rate [5] | Log10 Count Rate [5] | Log Infectivity [1, 15] | also measured |
| --- | --- | --- | --- | --- | --- | --- | --- | --- | --- | --- | --- | --- | --- | --- | --- | --- | --- | --- | --- | --- | --- |
| QCKIKQIINM | 0,35 | -0,46 | -0.4555 | -0.46 | -0.4555 | -0.4555 | -0.46 | 11186.66667 | -0.4555 | 38.44% | 10.4 | 9.992 mV | 10.4 mV | 4.313 | 20551 kcps | 4.313 | 4.313 | 20551.06667 | 4.313 |  |  |
| CEIEIQI | 0,03 | -1,55 | -1.554 | -1.55 | -1.554 | -1.554 |  | 633.3 | -1.554 | 45% | -26.1 | -24.43 mV | -26.1 mV | 1.716 | 52 kcps | 1.716 | 1.716 | 51.97 | 1.716 | -1.55 |  |
| NMWQKVGTPL | 0,02 | -1,61 | -1.607 | -1.61 | -1.607 | -1.607 |  | 276.7 | -1.607 | 32.26% | -9.62 | -5.334 mV | -9.62 mV | 1.431 | 27 kcps | 1.431 | 1.431 | 26.97 | 1.431 |  |  |
| KIKIQINMWQ | 0,3 | -0,53 | -0.5276 | -0.53 | -0.5276 | -0.5276 | -0.53 | 6650 | -0.5276 | 42.41% | 14.87 | 15.7 mV | 14.87 mV | 3.342 | 2196 kcps | 3.342 | 3.342 | 2196 | 3.342 | -0.53 |  |
| MKFM | 0,02 | -1,76 | -1.756 | -1.76 | -1.756 | -1.756 |  | 383.3 | -1.756 | 34.63% | -16 | -9.2 mV | -16 mV | 2.1165 | 131 kcps | 2.1165 | 2.1165 | 130.8 | 2.1165 |  |  |
| MDQMDQMDQMDQMDQ | 0 | -2,37 | -2.37 | -2.37 | -2.37 | -2.37 |  | 63.33 | -2.37 | 46.09% | -14.98 | -10.69 mV | -14.98 mV | 0.9823 | 10 kcps | 0.9823 | 0.9823 | 9.6 | 0.9823 | -2.37 |  |
| KFKFQF | 0,06 | -1,21 | -1.213 | -1.21 | -1.213 | -1.213 |  |  | -1.213 | 46% |  | -8.745 mV | -11.03 mV | 2.263 | 183 kcps | 2.263 | 2.263 | 183.4 | 2.263 | -1.21 | Zeta-Pot. [3, 16]: -11.03 |
| KIKQIINM | 0,45 | -0,35 | -0.3458 | -0.35 | -0.3458 | -0.3458 | -0.35 |  | -0.3458 | 44% |  | 18.1 mV | 16.3 mV | 3.395 | 2481 kcps | 3.395 | 3.395 | 2481 | 3.395 | -0.35 | Zeta-Pot. [3, 16]: 16.3 |
| CRFRFQF | 0,34 | -0,46 | -0.4635 | -0.46 | -0.4635 | -0.4635 | -0.46 | 7508 | -0.4635 | 39.77% | -2.097 | 6.218 mV | -2.1 mV | 2.592 | 391 kcps | 2.592 | 2.592 | 390.5 | 2.592 | -0.46 |  |
| CHLHLQL | 0,1 | -1,01 | -1.008 | -1.01 | -1.008 | -1.008 |  | 2934 | -1.008 | 49.52% | -12.27 | -10.37 mV | -12.27 mV | 3.062 | 1155 kcps | 3.062 | 3.062 | 1155 | 3.062 | -1.01 | Abs. Infection at 0.26 µM ([1]; peptide 0.26 µM, mean of n = 3, Figure 4A): 572.2; Infect 1 0.26 µM ([1]; peptide 0.26 µM, replicate 1, absolute infection signal, Figure 4A): 545.6; Infect 2 0.26 µM ([1]; peptide 0.26 µM, replicate 2, absolute infection signal, Figure 4A): 488.9; Infect 3 0.26 µM ([1]; peptide 0.26 µM, replicate 3, absolute infection signal, Figure 4A): 682.2; Abs. Infection at 1.3 µM ([1]; peptide 1.3 µM, mean of n = 3, Figure 4A): 2934; Infect 1 .3 µM ([1]; peptide 1.3 µM, replicate 1, absolute infection signal, Figure 4A): 3586; Infect 2 1.3µM ([1]; peptide 1.3 µM, replicate 2, absolute infection signal, Figure 4A): 2346; Infect 3 1.3 µM ([1]; peptide 1.3 µM, replicate 3, absolute infection signal, Figure 4A): 2872; Log10 Count Rate ([4]; logarithm of count rate in kcps): 3.062 |
| CETMYDKILKNLSRSR | 0,02 | -1,72 | -1.716 | -1.72 | -1.716 | -1.716 |  | 363.3 | -1.716 | 62.1014% | 0.41 | -1.487 mV | 0.41 mV | 3.041 | 1099 kcps | 3.041 | 3.041 | 1099 | 3.041 | -1.72 |  |
